Reference: paper PMC9286291, “A new adenine nucleotide transporter located in the ER is essential for maintaining the growth of Toxoplasma gondii” (PLoS Pathogens, 2022)

How the values were obtained:
TgANT = target: T1, TgANT (Toxoplasma gondii, UniProt A0A7J6KCX5); assay: inhibition of [α-32P]ATP uptake into intact E. coli cells; format: cell-based; conditions: 25 nM [α-32P]ATP, unlabelled competitor at 100-fold concentration, 15 min, 30 °C, 50 mM potassium phosphate pH 7.0
T1 construct: gene TGRH88_003770; codon-optimised CDS in pET16b, expressed in the plasma membrane of intact E. coli BL21 (DE3); HA tag in the IFA construct
T1 sequence (A0A7J6KCX5 1-413): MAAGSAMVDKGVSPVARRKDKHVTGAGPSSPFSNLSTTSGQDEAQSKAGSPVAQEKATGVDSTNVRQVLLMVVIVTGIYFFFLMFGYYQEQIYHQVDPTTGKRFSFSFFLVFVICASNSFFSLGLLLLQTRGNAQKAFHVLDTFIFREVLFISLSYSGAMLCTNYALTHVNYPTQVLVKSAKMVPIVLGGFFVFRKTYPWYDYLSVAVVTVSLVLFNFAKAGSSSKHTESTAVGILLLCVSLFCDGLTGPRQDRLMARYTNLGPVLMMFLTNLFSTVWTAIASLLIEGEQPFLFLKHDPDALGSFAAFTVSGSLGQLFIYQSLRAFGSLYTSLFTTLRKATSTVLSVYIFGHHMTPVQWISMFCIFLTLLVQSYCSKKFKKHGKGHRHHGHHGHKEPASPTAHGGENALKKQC
Text: inhibition of [α-32P]ATP uptake into intact E. coli cells on TgANT

PfANT = target: T2, PfANT (Plasmodium falciparum, UniProt Q8IIM9); assay: as above; format: cell-based; conditions: 25 nM [α-32P]ATP, unlabelled competitor at 100-fold concentration, 15 min, 30 °C, 50 mM potassium phosphate pH 7.0
T2 construct: gene PF3D7_1113300; expressed in the plasma membrane of intact IPTG-induced E. coli from an encoding plasmid
T2 sequence (Q8IIM9 1-343): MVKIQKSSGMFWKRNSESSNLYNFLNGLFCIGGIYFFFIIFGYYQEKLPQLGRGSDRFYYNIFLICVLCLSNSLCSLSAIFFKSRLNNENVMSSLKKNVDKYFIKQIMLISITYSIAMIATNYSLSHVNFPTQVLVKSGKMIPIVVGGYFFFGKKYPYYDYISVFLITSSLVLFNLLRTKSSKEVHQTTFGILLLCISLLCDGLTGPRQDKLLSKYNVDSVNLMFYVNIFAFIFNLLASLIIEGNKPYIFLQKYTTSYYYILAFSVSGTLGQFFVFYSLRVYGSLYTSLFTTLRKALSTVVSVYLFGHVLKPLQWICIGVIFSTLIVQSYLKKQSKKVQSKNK
Text: inhibition of [α-32P]ATP uptake into intact E. coli cells on PfANT

Row | Compound | Uptake(% of control) (TgANT) | Uptake(% of control) (PfANT)
1 | Nc1ncnc2c1ncn2[C@@H]1O[C@H](COP(=O)(O)OP(=O)(O)O)[C@@H](O)[C@H]1O [ADP] | 3.9 ±0.31 % of control | 28.9 ±3.8 % of control
2 | Nc1ncnc2c1ncn2[C@@H]1O[C@H](COP(=O)(O)OP(=O)(O)OP(=O)(O)O)[C@@H](O)[C@H]1O [ATP] | 3.4 ±0.25 % of control | 23.8 ±1.4 % of control
